Source: patent US11554091B2, “Composition for enhancing skin elasticity or improving skin wrinkles comprising heptahydroxyflavan as an effective ingredient” (AMOREPACIFIC CORPORATION, priority 2019, dated 2023)

Test system: MMP-1
Assay: MMP-1 expression level by MMP-1 ELISA kit, UV-stimulated HaCaT cell culture and human fibroblast culture
Assay type: cell-based
Settings: for MMP-1 production: Control = 100, UV = 260.4; for effect of inhibiting MMP-1 as compared to catechin or epicatechin: Table 1 and FIG. 3
Experimental: Then, after replacing the medium with an FBS-free DMEM medium to starve the cells, they were treated with UV on the next day.
Then, the cells were starved by replacing the medium with an FBM medium with no supplement. Then, the UV-stimulated HaCaT cell culture and the human fibroblast culture were treated with a total of 6 samples prepared by dissolving the (2R,3S)-heptahydroxyflavan and (2R,3R)-heptahydroxyflavan obtained in Example 1 in 5% DMSO to concentrations of 5 μg/mL (=about 15.5 μM), 10 μg/mL (=about 31.0 μM) and 20 μg/mL (=about 62.1 μM), respectively. As comparative examples, the cultures were treated with a total of 6 samples prepared by dissolving catechin and epicatechin in 5% DMSO at concentrations of 25 μM, 50 μM and 100 μM, respectively.
After the treatment with the samples, the expression level of MMP-1 was measured using the MMP-1 ELISA kit (R&D Systems). Separately from this, positive control groups were treated with 10 μM EGCG or 10 μM retinoic acid instead of heptahydroxyflavan in the same manner as described above.

Row | Compound | MMP-1 production (5 μg/mL) | MMP-1 production (10 μg/mL) | MMP-1 production (20 μg/mL) | effect of inhibiting MMP-1 as compared to catechin or epicatechin | MMP-1 production (10 μM) | MMP-1 production (25 μM) | MMP-1 production (50 μM) | MMP-1 production (100 μM)
1 | Oc1ccc([C@H]2Oc3c(O)c(O)c(O)c(O)c3C[C@@H]2O)cc1O [APNP-054] | 282.1 | 267.7 | 183.2 | remarkably superior effect of inhibiting MMP-1 |  |  |  | 
2 | Oc1ccc([C@H]2Oc3c(O)c(O)c(O)c(O)c3C[C@H]2O)cc1O [APNP-055] | 281.0 | 286.6 | 160.6 | remarkably superior effect of inhibiting MMP-1 |  |  |  | 
3 | O=C(O[C@@H]1Cc2c(O)cc(O)cc2O[C@@H]1c1cc(O)c(O)c(O)c1)c1cc(O)c(O)c(O)c1 [EGCG] |  |  |  |  | 115.4 |  |  | 
4 | Oc1cc(O)c2c(c1)O[C@H](c1ccc(O)c(O)c1)[C@H](O)C2 [Epicatechin, epicatechin] |  |  |  |  |  | 294.8 | 289.1 | 196.2
5 | CC1=C(/C=C/C(C)=C/C=C/C(C)=C/C(=O)O)C(C)(C)CCC1 [RA, retinoic acid] |  |  |  |  | 104.5 |  |  | 
6 | catechin |  |  |  |  |  | 308.2 | 287.4 | 257.3
